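96-well plates; 48 h exposure; 5 concentrations. Endpoints by linear interpolation between flanking doses. Not reached: highest tested concentration assigned. The concentration for 50% growth inhibition is given as GI50.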 Calls of active or inactive are those of the source. Rule as the data show it: active = GI50 up to about 1.1 µM and inactive = higher.
How the values were obtained:
Experiment in all cases: NCI-60 cell line screen, 48 h
Malme-3M = tested on: Malme-3M
A549 = tested on: A549
MOLT-4 = tested on: MOLT-4
SN12C = tested on: SN12C
SNB-75 = tested on: SNB-75
K562 = tested on: K562
OVCAR-4 = tested on: OVCAR-4
UACC-257 = tested on: UACC-257
SR = tested on: SR
U-251 = tested on: U-251
UO-31 = tested on: UO-31
XF498 = tested on: XF498
SNB-19 = tested on: SNB-19
DLD-1 = tested on: DLD-1
NCI-H226 = tested on: NCI-H226
NCI-H23 = tested on: NCI-H23
COLO 205 = tested on: COLO 205
NCI-H522 = tested on: NCI-H522
HL-60 = tested on: HL-60
DMS-273 = tested on: DMS-273
SF-268 = tested on: SF-268
TK-10 = tested on: TK-10
SW-620 = tested on: SW-620
786-0 = tested on: 786-0
CAKI-1 = tested on: CAKI-1
HCT-116 = tested on: HCT-116
RXF 393 = tested on: RXF 393
SK-MEL-28 = tested on: SK-MEL-28
M14 = tested on: M14
ACHN = tested on: ACHN
SK-MEL-2 = tested on: SK-MEL-2
OVCAR-5 = tested on: OVCAR-5
HOP-18 = tested on: HOP-18
OVCAR-8 = tested on: OVCAR-8
NCI-H460 = tested on: NCI-H460
IGROV-1 = tested on: IGROV-1
LXFL 529 = tested on: LXFL 529
RXF 631 = tested on: RXF 631
HCC 2998 = tested on: HCC 2998
M19-MEL = tested on: M19-MEL
A498 = tested on: A498
LOX IMVI = tested on: LOX IMVI
HCT-15 = tested on: HCT-15
SK-OV-3 = tested on: SK-OV-3
HT-29 = tested on: HT-29
DMS-114 = tested on: DMS-114
HOP-62 = tested on: HOP-62
KM12 = tested on: KM12
EKVX = tested on: EKVX
SK-MEL-5 = tested on: SK-MEL-5
KM-20L2 = tested on: KM-20L2
UACC-62 = tested on: UACC-62
RPMI-8226 = tested on: RPMI-8226
OVCAR-3 = tested on: OVCAR-3
SF-539 = tested on: SF-539
CCRF-CEM = tested on: CCRF-CEM
SF-295 = tested on: SF-295
HOP-92 = tested on: HOP-92
SNB-78 = tested on: SNB-78

Measured: GI50

O=C(Nc1ccc(Cl)cc1)c1cc([N+](=O)[O-])ccc1O
6.79 µM: HCT-15
inactive: Malme-3M 2.13 µM | A549 4.62 µM | MOLT-4 2.58 µM | SN12C 4.07 µM | SNB-75 3.84 µM | K562 2.67 µM | OVCAR-4 4.52 µM | UACC-257 4.84 µM | SR 5.57 µM | U-251 3.27 µM | UO-31 2.6 µM | XF498 2.82 µM | SNB-19 3.77 µM | DLD-1 3.71 µM | NCI-H226 3.55 µM | NCI-H23 2.64 µM | COLO 205 3.27 µM | NCI-H522 2.09 µM | HL-60 2.19 µM | DMS-273 5.55 µM | SF-268 4.97 µM | TK-10 5.58 µM | SW-620 5.07 µM | 786-0 3.76 µM | CAKI-1 4.02 µM | HCT-116 3.37 µM | RXF 393 1.77 µM | SK-MEL-28 3.33 µM | M14 3.65 µM | ACHN 3.2 µM | SK-MEL-2 2.61 µM | OVCAR-5 4.53 µM | HOP-18 1.58 µM | OVCAR-8 4.33 µM | NCI-H460 3.01 µM | IGROV-1 3.27 µM | LXFL 529 2.9 µM | RXF 631 2.9 µM | HCC 2998 2.32 µM | M19-MEL 3.52 µM | A498 2.47 µM | LOX IMVI 3.29 µM | SK-OV-3 4.69 µM | HT-29 3.62 µM | DMS-114 2.35 µM | HOP-62 2.49 µM | KM12 4.68 µM | EKVX 3.85 µM | SK-MEL-5 2.8 µM | KM-20L2 4.49 µM | UACC-62 2.29 µM | RPMI-8226 2.33 µM | OVCAR-3 2.67 µM | SF-539 3.34 µM | CCRF-CEM 2.64 µM | SF-295 4.95 µM

C/C(CC(=O)N(C(C)C)C(C)C)=N\NC(=O)c1ccncc1
inactive: Malme-3M > 100 µM | A549 > 100 µM | MOLT-4 > 100 µM | SN12C > 100 µM | SNB-75 95.7 µM | K562 > 100 µM | OVCAR-4 > 100 µM | UACC-257 > 100 µM | SR > 100 µM | U-251 > 100 µM | UO-31 > 100 µM | XF498 > 100 µM | SNB-19 > 100 µM | DLD-1 > 100 µM | NCI-H226 > 100 µM | NCI-H23 > 100 µM | COLO 205 > 100 µM | NCI-H522 > 100 µM | HL-60 > 100 µM | HOP-92 > 100 µM | DMS-273 > 100 µM | SF-268 > 100 µM | SW-620 > 100 µM | 786-0 > 100 µM | SNB-78 > 100 µM | HCT-116 > 100 µM | RXF 393 > 100 µM | SK-MEL-28 > 100 µM | M14 > 100 µM | ACHN > 100 µM | HOP-18 > 100 µM | OVCAR-8 > 100 µM | IGROV-1 > 100 µM | LXFL 529 > 100 µM | RXF 631 > 100 µM | HCC 2998 > 100 µM | M19-MEL > 100 µM | A498 > 100 µM | LOX IMVI > 100 µM | SK-OV-3 > 100 µM | HT-29 > 100 µM | EKVX > 100 µM | SK-MEL-5 > 100 µM | KM-20L2 > 100 µM | UACC-62 > 100 µM | RPMI-8226 > 100 µM | OVCAR-3 > 100 µM | SF-539 > 100 µM | CCRF-CEM > 100 µM | SF-295 > 100 µM
> 100 µM: HCT-15

From ChEMBL document CHEMBL1201862, “PubChem BioAssay data set” (2004)
